This experiment has as its system subgenomic HCV replicon in Huh-7 cells. In words: Cell-Based HCV Replication Assay (replicon, NS3 Cell-ELISA). The conditions noted are these: NS3 expression by Cell-ELISA. More on the design: species or system hepatitis C virus (HCV). From the text:
Another suitable assay is the cellular Replicon or rheplisa assay described as follows:
Cell-Based HCV Replication Assay
Cell clones that stably maintain subgenomic HCV replicon were obtained by transfecting Huh-7 cells with an RNA replicon identical to I377neo/NS3-3′/wt described by V. Lohmann et al., 285 SCIENCE 110 (Jul. 2, 1999) (EMBL-GENBANK No. AJ242652), followed by selection with neomycin sulfate (G418). Viral replication was monitored by measuring the expression of the NS3 protein by an ELISA assay performed directly on cells grown in 96-well microtiter plates (Cell-ELISA) using the anti-NS3 monoclonal antibody 10E5/24 (as described in International Patent Application Publication WO 02/59321). Cells were seeded into 96 well plates at a density of 10^4 cells per well in a final volume of 0.1 ml of DMEM/10% FCS. Two hours after plating, 50 μl of DMEM/10% FCS containing a 3× concentration of inhibitor were added, cells were incubated for 96 hours and then fixed for 10 minutes with ice-cold isopropanol. Each condition was tested in duplicate and average absorbance values were used for calculations. The cells were washed twice with PBS, blocked with 5% non-fat dry milk in PBS+0.1% TRITON X-100+0.02% SDS (PBSTS) and then incubated o/n at 4° C. with the 10E5/24 mab diluted in Milk/PBSTS. After washing 5 times with PBSTS, the cells were incubated for 3 hours at room temperature with Fe-specific anti-mouse IgG conjugated to alkaline phosphatase (Sigma), diluted in Milk/PBSTS. After washing again as above, the reaction was developed with p-nitrophenyl phosphate disodium substrate (Sigma) and the absorbance at 405/620 nm read at intervals. For calculations, we used data sets where samples incubated without inhibitors had absorbance values comprised between 1 and 1.5. The inhibitor concentration that reduced by 50% the expression of NS3 (IC50) was calculated by fitting the data to the Hill equation, Fraction inhibition=1−(Ai−b)/(A0−b)=[I]^n/([I]+IC50) where: • Ai=absorbance value of HBI10 cells supplemented with the indicated inhibitor concentration. • A0=absorbance value of HBI10 cells incubated without inhibitor. • b=absorbance value of Huh-7 cells plated at the same density in the same microtiter plates and incubated without inhibitor. • n=Hill coefficient.
For orientation: In antiviral work, replicon cells carry a viral genome segment that copies itself.

The mark [1] stands for this setting: Hepatitis C virus, Huh-7 cells with subgenomic HCV replicon, 96 hours incubation, read-out: Cell based HCV Replication Assay-IC50.
Where [2] appears, read: Hepatitis C virus, Huh-7 replicon cells, 96 hours, read-out: Cell-based HCV Replication Assay: IC50.

Where two headings read alike, the source gives them in different places.

Our source for the IC50 values is patent publication US8591878B2, “Therapeutic compounds” (Merck Sharp & Dohme Corp., priority 2008, dated 2013).

For `C=C[C@@H]1C[C@]1(NC(=O)[C@@H]1C[C@@H]2CN1C(=O)[C@H](C1CCCC1)NC(=O)N1CC[C@@H](C1)OCCC/C=C/c1cc3ccccc3cc1O2)C(=O)NS(=O)(=O)C1CC1` [Example 37, (1R,13E,19S,25S,28S)-25-cyclopentyl-N-((1R,2S)-1-{[(cyclopropylsulfonyl)amino]carbonyl}-2-vinylcyclopropyl)-23,26-dioxo-2,18-dioxa-22,24,27-triazapentacyclo [25.2.1.1^19,22.0^3,12.0^5,10] hentriaconta-3(12),4,5,7,9,10,13-heptaene-28-carboxamide], under setting [1], the IC50 (as a rule, the concentration that inhibits the measured activity by half) came out at 4 nM.

For the compound `C=C[C@@H]1C[C@]1(NC(=O)[C@@H]1C[C@@H]2CN1C(=O)[C@H](C1CCCCC1)NC(=O)N1CC(C1)OCCC/C=C/c1cc3c(cc(OCC)nc3cc1OC)O2)C(=O)NS(=O)(=O)C1CC1` [Example 39, (3R,5S,8S,18E)-8-cyclohexyl-N-((1R,2S)-1-{[(cyclopropylsulfonyl)amino]carbonyl}-2-vinylcyclopropyl)-25-ethoxy-21-methoxy-7,10-dioxo-2,14-dioxa-6,9,11,24-tetraazapentacyclo [18.6.2.1^3,6.1^11,13.0^23,27] triaconta-1(26),18,20,22,24,27-hexaene-5-carboxamide], under setting [1], the IC50 turned out to be 19 nM.

In the case of `C=C[C@@H]1C[C@]1(NC(=O)[C@@H]1C[C@@H]2CN1C(=O)[C@H](C1CCCC1)NC(=O)N1CC[C@@H](C1)OCCCc1ccc3nc(OCC)nc(c3c1)O2)C(=O)NS(=O)(=O)C1CC1` [Example 41, (3R,5S,8S,14S)-8-cyclopentyl-N-((1R,2S)-1-{[(cyclopropylsulfonyl)amino]carbonyl}-2-vinylcyclopropyl)-24-ethoxy-7,10-dioxo-2,15-dioxa-6,9,11,23,25-pentaazapentacyclo [17.6.2.1^3,6.1^11,14.0^22,26] nonacosa-1(25),19,21,23,26-pentaene-5-carboxamide], the IC50 under setting [1] came out at 94 nM.

Regarding `C=C[C@@H]1C[C@]1(NC(=O)[C@@H]1C[C@@H]2CN1C(=O)[C@H](C1CCCCC1)NC(=O)N1CC(C1)OCC/C=C/c1cc3c(cc(OCC)nc3cc1OC)O2)C(=O)NS(=O)(=O)C1CC1` [Example 44, (3R,5S,8S,17E)-8-Cyclohexyl-N-((1R,2S)-1-{[(cyclopropylsulfonyl)amino]carbonyl}-2-vinylcyclopropyl)-24-ethoxy-20-methoxy-7,10-dioxo-2,14-dioxa-6,9,11,23-tetraazapentacyclo[17.6.2.1^3,6.1^11,13.0^22,26]nonacosa-1(25),17,19,21,23,26-hexaene-5-carboxamide], the IC50 under setting [2] is 6 nM.

As to `C=C[C@@H]1C[C@]1(NC(=O)[C@@H]1C[C@@H]2CN1C(=O)[C@H](C1CCCCC1)NC(=O)N1CC(C1)OCCCCc1cc3c(cc(OCC)nc3cc1OC)O2)C(=O)NS(=O)(=O)C1CC1` [Example 45, (3R,5S,8S)-8-cyclohexyl-N-((1R,2S)-1-{[(cyclopropylsulfonyl)amino]carbonyl}-2-vinylcyclopropyl)-24-ethoxy-20-methoxy-7,10-dioxo-2,14-dioxa-6,9,11,23-tetraazapentacyclo[17.6.2.1^3,6.1^11,13.0^22,26]nonacosa-1(25),19,21,23,26-pentaene-5-carboxamide], the IC50 under setting [2] turned out to be 6 nM.

Turning to “(1R,13E,19S,25S,28S)-25- cyclohexyl-N-((1R,2S)-1- {[(cyclopropylsulfonyl)amino] carbonyl}-2- vinylcyclopropyl)-7-methoxy- 23,26-dioxo-2,18-dioxa- 4,22,24,27-tetraazapentacyclo [25.2.1.1^19,22.0^3,12.0^5,10] hentriaconta- 3(12),4,5,7,9,10,13-heptaene- 28-carboxamide [Example 42]”, under “Huh-7 cells with subgenomic HCV replicon, 96 hours incubation, read-out: Cell based HCV Replication Assay-IC50”, the concentration for half-maximal inhibition (IC50) came out at 3 nM.
